Laboratory results taken from ChEMBL document CHEMBL1150176, “Majorenolide and majorynolide: a new pair of cytotoxic and pesticidal alkene-alkyne delta-lactones from Persea major” (J Nat Prod, 1989).
In brackets after ≈: the same amount, converted by molar mass. Activity calls are given as the source filed them. The calls are words filed in the database; no cut-off is given here.

Assays:
HT-29 = test: Cytotoxicity against human HT-29 cells; type: functional; conditions: read-out: ED50 (the source's name)
Aphis gossypii [1] = test: Pesticidal activity against melon aphid at 10 ppm; type: functional
Calliphoridae = test: Pesticidal activity against blowfly; type: functional
Tetranychus urticae = test: Pesticidal activity against two spotted spider mite at 400 ppm; type: functional
A549 = test: Cytotoxicity against human A549 cells; type: functional; conditions: read-out: ED50 (the source's name)
Artemia = test: Toxicity against brine shrimp; type: organism-based; conditions: in vivo
[2] = system: Diabrotica undecimpunctata; test: Pesticidal activity against southern corn rootworm at 300 ppm; type: functional, organism-based; conditions: howardi
[3] = system: Agrobacterium tumefaciens; test: Antitumor activity against Agrobacterium tumefaciens-induced crown gall tumors in potato tuber by potato disk test; type: functional
Culicidae = test: Pesticidal activity against mosquito larvae at 10 ppm; type: functional
MCF7 = test: Cytotoxicity against human MCF7 cells; type: functional; conditions: read-out: ED50 (the source's name)
Haemonchus contortus = test: Nematicidal activity against Haemonchus contortus; type: functional
Spodoptera eridania = test: Pesticidal activity against southern armyworm at 5000 ppm; type: functional, organism-based
Aphis gossypii [4] = test: Pesticidal activity against melon aphid at 400 ppm; type: functional

SMILES	EC50 (HT-29) [µg/mL]	Activity (Aphis gossypii [1]) [%]	Activity (Calliphoridae) [%]	Activity (Tetranychus urticae) [%]	EC50 (A549) [µg/mL]	LC50 (Artemia) [ppm]	Activity [2]	inhibition (INH) [3] [%]	Activity (Culicidae) [%]	EC50 (MCF7) [µg/mL]	Activity (Haemonchus contortus) [%]	Activity (Spodoptera eridania)	Activity (Aphis gossypii [4]) [%]
C=CCCCCCCCCC/C=C1\CC(CO)OC1=O (centres undefined) [MAJORENOLIDE]	2.61 (≈ 9.31 µM)	80	1	0	1.7 (≈ 6.06 µM)	0.36	inactive	86	20	2.58 (≈ 9.2 µM)	0.1	inactive	
C#CCCCCCCCCC/C=C1\CC(CO)OC1=O (centres undefined) [MAJORYNOLIDE]	13.8 (≈ 49.6 µM)		1	0	4.64 (≈ 16.7 µM)	0.89	inactive	46	0	9.56 (≈ 34.3 µM)	0.1	inactive	0
